According to PMC12584752, “Covalent fragment screening to inhibit the E3 ligase activity of bacterial NEL enzymes SspH1 and SspH2” (RSC Chemical Biology, 2025):

Tests used:
SspH1 (161–700) = SspH1 (161–700) (Salmonella typhimurium, UniProt D0ZVG2); assay: Substrate (PKN1) ubiquitination assay; type: biochemical; parameters: SspH1 (5 μM, 161–700) was prelabelled at 350 rpm, RT for 18 hours; His-tag (N, cleaved yes); made in house; host or cells: E. coli BL21; conditions: SspH1 pre-labelled with compound overnight at RT; 0–30 minutes
Procedure: Fig. 4 SspH1 in vitro inhibition with compounds 6 and 7. (A) Discharge assay schematic; (B) E2–Ub discharge time course assay with SspH1 pre-treated with either DMSO or compounds 6 or 7. UbcH5A–Ub-cy3 (1 μM) was incubated at RT for 0–30 minutes with SspH1 (residues 161–700, 50 nM) which had been pre-labelled with 6 or 7 at RT overnight. (C) Substrate ubiquitination assay schematic; (D) PKN1 ubiquitination time course assay with SspH1 pre-treated with either DMSO or compounds 6 or 7. A reaction of UBA1 (0.1 μM), UbcH5A (2 μM), ubiquitin (20 μM), PKN1 HR1b (2 μM, residues 122–199) and 10 mM ATP was incubated at RT for 0–30 minutes with SspH1 (residues 161–700, 0.5 μM) which had been pre-labelled with 6 or 7 at RT overnight.
Alternatively, substrate ubiquitination can be followed in vitro using a reconstituted ubiquitin enzymatic cascade, where recombinant ubiquitin, E1, E2, E3 and substrate are incubated with ATP (Fig. 4C). With SspH1, E3 ligase activity can then be observed by ubiquitination of its substrate PKN1.[25] This assay represents a higher order of complexity and involves three enzymes with catalytic cysteines (E1, E2 and E3) and is closer to in situ E3 activity. We compared SspH1 ubiquitination activity when SspH1 was pre-treated with DMSO or compound 6 or 7 (Fig. 4D), again overnight at room temperature to ensure complete labelling. […]

HEK293T cells = assay: Cell toxicity observed during in-cell treatment; type: cell-based, human; conditions: 50 μM, four hours
Procedure: We next interrogated whether compounds 6 or 7 could engage SspH1 or SspH2 in live human cells. To simplify experimental setup, we opted for NEL overexpression in mammalian cells, coupled with chemoproteomics, over a Salmonella infection-based assay. SspH1 or SspH2 were transiently expressed in HEK293T cells (Fig. S6), and cells treated with 50 μM of either compound 6 or 7 for four hours. […] Following cell lysis, we again utilized an IA-DTB chemoproteomics workflow to assess cysteine engagement.[52] Peptides engaging with compound 6 were identified with an average log2 CR ≤ −1 and P-value ≤0.05 when compared to DMSO controls (Fig. 5C and D). […] However, none of these included catalytic cysteines-containing peptides of HECT or RBR E3 ligases, nor of DUBs. Therefore, compound 6 provides a useful starting point for medicinal chemistry campaigns to design potent and specific tool compounds for SspH1 and SspH2.
All cells were grown in DMEM media (Gibco, 41966-029) supplemented with FBS (ThermoFisher, A5256701) and Pen/Strep (Gibco, 15140-122) at 37 °C with 5% CO2. SspH1 (aa 1–700) and SspH2 (aa 1–786) genes were cloned separately into […] plasmids. HEK293T cells were seeded in 6-well plates at a density of 2 × 10^5 cells per well. […] Protein concentrations were measured using a Rapid BCA Gold Protein Assay Kit (Thermo Scientific, A53226) and diluted to 1 mg mL^−1 with lysis buffer. […]

SspH1 (161–700), sequence (D0ZVG2 161-700): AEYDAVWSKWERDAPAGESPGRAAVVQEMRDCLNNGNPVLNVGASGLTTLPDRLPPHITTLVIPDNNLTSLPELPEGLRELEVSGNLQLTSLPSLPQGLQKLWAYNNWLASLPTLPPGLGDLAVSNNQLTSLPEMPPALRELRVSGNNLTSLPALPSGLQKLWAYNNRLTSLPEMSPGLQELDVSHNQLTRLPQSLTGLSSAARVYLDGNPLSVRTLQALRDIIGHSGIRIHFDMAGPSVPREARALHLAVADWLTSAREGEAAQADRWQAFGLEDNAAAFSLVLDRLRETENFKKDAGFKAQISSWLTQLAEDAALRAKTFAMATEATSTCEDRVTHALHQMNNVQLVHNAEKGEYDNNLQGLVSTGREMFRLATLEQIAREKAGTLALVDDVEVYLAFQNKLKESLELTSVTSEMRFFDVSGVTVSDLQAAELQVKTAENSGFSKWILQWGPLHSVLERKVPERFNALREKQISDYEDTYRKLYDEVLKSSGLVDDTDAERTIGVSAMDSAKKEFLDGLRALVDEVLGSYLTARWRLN

Compound | PKN1 ubiquitination (SspH1 (161–700)) | cell toxicity (HEK293T cells)
Cl.O=C(CCl)N1CCC(n2c(-c3ccc(C(F)(F)F)cc3)nc3ccccc32)CC1 [compound 7] | completely abrogated | significant effects on cell attachment and potential toxicity
Cc1cc(-c2nc3ccccc3n2C2CCN(C(=O)CCl)CC2)cc(C)c1O.Cl [compound 6] | completely abrogated | no apparent cell toxicity
